Laboratory results published in ChEMBL document CHEMBL1201862, “PubChem BioAssay data set” (2004).
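Growth conditions: 96-well plates. Treatment: test compound, 48 hours, 5 concentrations. Analysis: linear interpolation between bracketing concentrations; unreached endpoints set to highest concentration. GI50 = concentration required for 50% inhibition of growth.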 Calls of active or inactive are those of the source. Cut-off read from the data, not from the text of the source: active = GI50 up to about 1.1 µM and inactive = higher.

How the values were obtained:
Experiment in all cases: inhibition of tumour cell growth, NCI panel, 48 h
OVCAR-8 = tested on: OVCAR-8
IGROV-1 = tested on: IGROV-1
SF-295 = tested on: SF-295
PC-3 = tested on: PC-3
MDA-N = tested on: MDA-N
SNB-19 = tested on: SNB-19
CCRF-CEM = tested on: CCRF-CEM
NCI/ADR-RES = tested on: NCI/ADR-RES
T47D = tested on: T47D
CAKI-1 = tested on: CAKI-1
HT-29 = tested on: HT-29
TK-10 = tested on: TK-10
ACHN = tested on: ACHN
SK-MEL-5 = tested on: SK-MEL-5
HOP-62 = tested on: HOP-62
BT-549 = tested on: BT-549
K562 = tested on: K562
OVCAR-3 = tested on: OVCAR-3
SR = tested on: SR

Measured: GI50

CC(=O)CC1(C)OC(N)=C(C#N)C1(C#N)C#N (stereo unspecified)
inactive: OVCAR-8 > 100 µM | IGROV-1 > 100 µM | SF-295 > 100 µM | PC-3 > 100 µM | MDA-N > 100 µM | SNB-19 > 100 µM | CCRF-CEM 44.7 µM | NCI/ADR-RES > 100 µM | T47D > 100 µM | CAKI-1 59.4 µM | HT-29 88.9 µM | TK-10 > 100 µM | ACHN > 100 µM | SK-MEL-5 42.1 µM | HOP-62 55.1 µM

S=C1c2ccccc2N=C(NC2CCCC2)C2CSCN12 (stereo unspecified)
inactive: OVCAR-8 > 100 µM | IGROV-1 > 100 µM | SF-295 > 100 µM | PC-3 40.6 µM | BT-549 > 100 µM | SNB-19 > 100 µM | K562 39.8 µM | CCRF-CEM 32 µM | OVCAR-3 97.1 µM | NCI/ADR-RES > 100 µM | T47D 48.3 µM | CAKI-1 > 100 µM | SR 39.6 µM | HT-29 48.5 µM | TK-10 > 100 µM | ACHN > 100 µM | SK-MEL-5 49.2 µM | HOP-62 > 100 µM

Cc1cc(C)nc(SCC(=O)OC2CC(C)CCC2C(C)C)n1 (stereo unspecified)
inactive: OVCAR-8 38.3 µM | IGROV-1 20.6 µM | SF-295 14.6 µM | PC-3 28.3 µM | BT-549 45.9 µM | SNB-19 18.7 µM | K562 20 µM | CCRF-CEM 16.6 µM | OVCAR-3 14.3 µM | NCI/ADR-RES 17 µM | T47D 14.8 µM | CAKI-1 20.3 µM | HT-29 16.4 µM | TK-10 34.3 µM | ACHN 18.7 µM | SK-MEL-5 15.2 µM | HOP-62 11.6 µM

O=C(Nc1ccc(Cl)cc1)c1cc(S(=O)(=O)Nc2n[nH]c(=O)n2-c2ccccc2)c(S)cc1Cl
inactive: OVCAR-8 > 100 µM | IGROV-1 > 100 µM | SF-295 > 100 µM | BT-549 > 100 µM | SNB-19 > 100 µM | CCRF-CEM > 100 µM | OVCAR-3 6.28 µM | NCI/ADR-RES > 100 µM | T47D > 100 µM | CAKI-1 > 100 µM | SR > 100 µM | HT-29 > 100 µM | SK-MEL-5 > 100 µM | HOP-62 > 100 µM

COc1ccc(S(=O)(=O)Nc2ccc(-c3csc(N4C(=O)/C(=C/c5ccccc5[N+](=O)[O-])N=C4c4ccccc4)n3)cc2)cc1Cl
inactive: OVCAR-8 35.3 µM | IGROV-1 16.1 µM | SF-295 47 µM | PC-3 32.6 µM | MDA-N 60 µM | SNB-19 59 µM | K562 39.5 µM | OVCAR-3 26 µM | NCI/ADR-RES 86.1 µM | T47D 24.5 µM | CAKI-1 > 100 µM | SR 30.8 µM | HT-29 > 100 µM | TK-10 53.3 µM | ACHN 50.5 µM | SK-MEL-5 43.2 µM | HOP-62 > 100 µM

Cc1ccc(O)c(/N=N\c2c(O)cc(S(=O)(=O)O)c3ccccc23)c1
inactive: OVCAR-8 26.2 µM | IGROV-1 40.3 µM | SF-295 34.6 µM | PC-3 33.7 µM | BT-549 81.7 µM | K562 32.2 µM | CCRF-CEM 23.1 µM | OVCAR-3 22.5 µM | NCI/ADR-RES 24.3 µM | CAKI-1 63.4 µM | SR 17.8 µM | HT-29 61.5 µM | TK-10 > 100 µM | ACHN 40.5 µM | SK-MEL-5 20.7 µM | HOP-62 57.4 µM

COC1=CC2C(c3cc4ccccc4n3S(=O)(=O)c3ccccc3)CC1CN2C(=O)OCc1ccccc1 (stereo unspecified)
inactive: OVCAR-8 50.8 µM | IGROV-1 33.7 µM | SF-295 25 µM | PC-3 29.3 µM | BT-549 25 µM | MDA-N 34.5 µM | K562 33.3 µM | CCRF-CEM 29.4 µM | OVCAR-3 19.5 µM | NCI/ADR-RES 35.7 µM | CAKI-1 35.2 µM | HT-29 23.6 µM | TK-10 67.1 µM | ACHN 28.6 µM | SK-MEL-5 25.6 µM | HOP-62 40.4 µM

COC(=O)/C=C/N1CC1
inactive: OVCAR-8 > 10 µM | IGROV-1 1.45 µM | SF-295 > 10 µM | PC-3 3.12 µM | BT-549 > 10 µM | SNB-19 8.15 µM | K562 > 10 µM | CCRF-CEM > 10 µM | OVCAR-3 5.81 µM | NCI/ADR-RES > 10 µM | T47D > 10 µM | CAKI-1 > 10 µM | SR > 10 µM | HT-29 3.28 µM | TK-10 4.09 µM | ACHN > 10 µM | SK-MEL-5 > 10 µM | HOP-62 > 10 µM

Cc1cc(S(N)(=O)=O)c(S/C(=N\Nc2ccc([N+](=O)[O-])cc2)c2ccc(Cl)cc2)cc1Cl
inactive: IGROV-1 3.44 µM | SF-295 2.11 µM | BT-549 4.65 µM | SNB-19 3.33 µM | K562 3.41 µM | CCRF-CEM 3.56 µM | OVCAR-3 1.74 µM | NCI/ADR-RES 2.64 µM | T47D 3.07 µM | CAKI-1 3.42 µM | SR 2.94 µM | HT-29 1.87 µM | TK-10 1.79 µM | ACHN 2.96 µM | SK-MEL-5 3.48 µM | HOP-62 3.18 µM

Cc1ccc2ccccc2c1NC1=NCCO1
inactive: OVCAR-8 > 100 µM | IGROV-1 > 100 µM | SF-295 > 100 µM | SNB-19 27.2 µM | K562 56.9 µM | CCRF-CEM 70.3 µM | NCI/ADR-RES > 100 µM | T47D 41.7 µM | SR 34.2 µM | HT-29 83 µM | TK-10 > 100 µM | ACHN 76.6 µM | SK-MEL-5 81.5 µM | HOP-62 > 100 µM

Oc1c(Cl)c(Cl)c(O)c(CCNc2nccs2)c1Cl
inactive: OVCAR-8 16.6 µM | IGROV-1 3.27 µM | SF-295 19.1 µM | PC-3 17.2 µM | SNB-19 17 µM | K562 4.58 µM | CCRF-CEM 3.74 µM | OVCAR-3 9.35 µM | NCI/ADR-RES 19.6 µM | T47D 5.48 µM | CAKI-1 11.4 µM | SR 4.81 µM | HT-29 17.9 µM | TK-10 11.7 µM | ACHN 6.44 µM | SK-MEL-5 2.2 µM | HOP-62 19.1 µM

Fc1ccc2c3c([nH]c2c1)CCN(Cc1ccccc1)C3
inactive: OVCAR-8 19.7 µM | IGROV-1 20.7 µM | SF-295 14.7 µM | SNB-19 16.6 µM | K562 18.1 µM | CCRF-CEM 30.4 µM | NCI/ADR-RES 28.1 µM | T47D 14.7 µM | SR 18.3 µM | HT-29 20.4 µM | TK-10 > 10 µM | ACHN 22.8 µM | SK-MEL-5 22.3 µM | HOP-62 15 µM

CC1=NN(c2cccc(Cl)c2)C(=N/c2nc3ccccc3s2)/C1=C\c1ccccc1O
inactive: OVCAR-8 27.4 µM | IGROV-1 19.7 µM | SF-295 30.5 µM | PC-3 20.5 µM | MDA-N 30.4 µM | K562 37 µM | CCRF-CEM 35.9 µM | OVCAR-3 19.2 µM | NCI/ADR-RES 24 µM | T47D 36.4 µM | CAKI-1 33.7 µM | SR 40.6 µM | HT-29 39.7 µM | TK-10 37.7 µM | ACHN 25.6 µM | SK-MEL-5 19.7 µM | HOP-62 29.6 µM

N#Cc1nc(C2SCCCS2)oc1N
inactive: OVCAR-8 > 100 µM | IGROV-1 > 100 µM | PC-3 > 100 µM | MDA-N > 100 µM | SNB-19 > 100 µM | K562 > 100 µM | CCRF-CEM 64.3 µM | CAKI-1 > 100 µM | SR > 100 µM | HT-29 > 100 µM | TK-10 > 100 µM | ACHN > 100 µM | SK-MEL-5 > 100 µM | HOP-62 > 100 µM

CC1(C)OCC(C(O)C2OC(C)(C)OC2C=O)O1 (stereo unspecified)
inactive: OVCAR-8 > 100 µM | IGROV-1 > 100 µM | SF-295 > 100 µM | PC-3 > 100 µM | MDA-N > 100 µM | SNB-19 > 100 µM | K562 > 100 µM | CCRF-CEM > 100 µM | OVCAR-3 > 100 µM | NCI/ADR-RES > 100 µM | SR > 100 µM | HT-29 > 100 µM | TK-10 > 100 µM | ACHN > 100 µM | SK-MEL-5 > 100 µM | HOP-62 > 100 µM

O=C(NCCN1CCOCC1)c1ccc2cc(C(=O)N3CC(CCl)c4ccc([N+](=O)[O-])cc43)[nH]c2c1 (stereo unspecified)
inactive: OVCAR-8 12.1 µM | IGROV-1 11.5 µM | SF-295 3.18 µM | PC-3 15 µM | BT-549 16.9 µM | SNB-19 12 µM | K562 19.4 µM | CCRF-CEM 7.82 µM | OVCAR-3 16.9 µM | NCI/ADR-RES > 100 µM | T47D 26.2 µM | CAKI-1 24.2 µM | HT-29 5.14 µM | TK-10 16.9 µM | ACHN 12.4 µM | SK-MEL-5 2.54 µM | HOP-62 17.1 µM
